ChEMBL document CHEMBL1145457, “Structure-activity studies and analgesic efficacy of N-(3-pyridinyl)-bridged bicyclic diamines, exceptionally potent agonists at nicotinic acetylcholine receptors” (J Med Chem, 2007)
The source made the active and inactive calls. The calls are words filed in the database; no cut-off is given here.

Legend:
[1] = target: Neuronal acetylcholine receptor; alpha4/beta2 (Rattus norvegicus, UniProt P09483+P12390); assay: Displacement of [3H]cytisine from alpha-4-beta-2 in rat cerebral cortical membrane; type: cell membranes
[2] = target: Neuronal acetylcholine receptor; alpha4/beta2 (Homo sapiens, UniProt P17787+P43681); assay: Agonist activity at […] in IMR-32cells assessed as calcium influx by FLIPR assay; type: functional
Striatum = assay: Agonist activity at rat striatal tissue assessed as dopamine release; type: functional
Rattus norvegicus [3] = assay: Antinociceptive effect in rat assessed as reduction of flinches up to 6.2 umol/kg, ip; type: functional, organism-based
Rattus norvegicus [4] = assay: Effect on reversal of allodynia in rat chug model at 19 umol/kg, ip; type: functional, organism-based
[5] = Drug levels in Sprague-Dawley rat plasma at 6.2 umol/kg, ip after 15 mins; type: ADME, organism-based
[6] = Drug level in Sprague-Dawley rat brain at 6.2 umol/kg, ip after 15 mins; type: ADME, organism-based; conditions: read-out: Drug uptake
[7] = Drug level in Sprague-Dawley rat plasma at 6.2 umol/kg, ip after 30 mins; type: ADME, organism-based
[8] = Drug level in Sprague-Dawley rat plasma at 6.2 umol/kg, ip after 60 mins; type: ADME, organism-based
[9] = Drug level in Sprague-Dawley rat brain at 6.2 umol/kg, ip after 30 mins; type: ADME, organism-based; conditions: read-out: Drug uptake
[10] = Drug level in Sprague-Dawley rat at 6.2 umol/kg, ip after 60 mins; type: ADME, organism-based; conditions: brain, read-out: Drug uptake
Mus musculus [11] = assay: Effect on hypolocomotion in mouse at 6.2 umol/kg, ip; type: functional, organism-based
Mus musculus [12] = assay: Effect on urination in mouse at 6.2 umol/kg, ip; type: functional, organism-based
Mus musculus [13] = assay: Effect on head weaving in mouse at 6.2 umol/kg, ip; type: functional, organism-based
Rattus norvegicus [14] = assay: Antinociceptive effect on rat assessed as increased latency to paw withdrawal in response to noxious thermal stimulus at 0.62 umol/kg, ip; type: functional, organism-based
Rattus norvegicus [15] = assay: Antinociceptive effect on rat assessed as reduction of flinches up to 1.9 umol/kg, ip; type: functional, organism-based
Rattus norvegicus [16] = organism: Rattus norvegicus; assay: Reversal of mechanically-stimulated hyperalgesia in spinal nerve ligated rat chung model; type: functional, organism-based
Mus musculus [17] = assay: Induction of seizure in mouse at 62 umol/kg, ip; type: functional, organism-based
[18] = Rattus norvegicus, Striatum, read-out: EC50
[19] = Rattus norvegicus, Striatum, read-out: Log EC50 (converted)

Chain of Neuronal acetylcholine receptor; alpha4/beta2 (Rattus norvegicus, UniProt P09483+P12390) (P09483 whole entry): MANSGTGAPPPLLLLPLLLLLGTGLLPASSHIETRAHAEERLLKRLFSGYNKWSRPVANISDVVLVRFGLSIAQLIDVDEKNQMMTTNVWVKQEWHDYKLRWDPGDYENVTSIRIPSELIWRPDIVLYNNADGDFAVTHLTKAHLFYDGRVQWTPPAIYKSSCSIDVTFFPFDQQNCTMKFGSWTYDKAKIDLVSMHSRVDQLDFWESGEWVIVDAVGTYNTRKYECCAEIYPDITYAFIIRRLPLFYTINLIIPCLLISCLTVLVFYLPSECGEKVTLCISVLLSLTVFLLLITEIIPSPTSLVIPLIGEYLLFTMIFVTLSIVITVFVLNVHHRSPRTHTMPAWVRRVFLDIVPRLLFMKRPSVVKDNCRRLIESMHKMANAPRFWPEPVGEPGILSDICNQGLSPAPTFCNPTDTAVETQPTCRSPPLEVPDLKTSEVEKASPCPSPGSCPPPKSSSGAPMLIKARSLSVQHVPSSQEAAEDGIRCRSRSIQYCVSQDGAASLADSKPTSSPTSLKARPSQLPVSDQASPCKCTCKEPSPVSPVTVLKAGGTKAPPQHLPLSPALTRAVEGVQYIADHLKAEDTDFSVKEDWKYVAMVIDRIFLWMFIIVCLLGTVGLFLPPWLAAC
Chain of Neuronal acetylcholine receptor; alpha4/beta2 (Rattus norvegicus, UniProt P09483+P12390) (P12390 whole entry): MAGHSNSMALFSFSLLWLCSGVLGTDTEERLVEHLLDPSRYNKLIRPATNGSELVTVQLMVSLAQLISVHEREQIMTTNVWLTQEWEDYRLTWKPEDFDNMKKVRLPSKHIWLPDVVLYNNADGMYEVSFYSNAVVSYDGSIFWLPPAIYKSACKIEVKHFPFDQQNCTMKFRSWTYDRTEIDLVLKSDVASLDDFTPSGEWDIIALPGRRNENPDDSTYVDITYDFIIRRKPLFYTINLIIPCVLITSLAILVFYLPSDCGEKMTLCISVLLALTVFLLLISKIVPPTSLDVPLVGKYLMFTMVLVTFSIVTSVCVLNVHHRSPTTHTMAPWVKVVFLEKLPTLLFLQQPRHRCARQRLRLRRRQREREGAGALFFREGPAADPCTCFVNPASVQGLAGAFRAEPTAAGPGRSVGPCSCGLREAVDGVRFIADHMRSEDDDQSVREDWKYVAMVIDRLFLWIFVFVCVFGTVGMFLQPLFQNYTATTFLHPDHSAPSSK
Chain of Neuronal acetylcholine receptor; alpha4/beta2 (Homo sapiens, UniProt P17787+P43681) (P17787 whole entry): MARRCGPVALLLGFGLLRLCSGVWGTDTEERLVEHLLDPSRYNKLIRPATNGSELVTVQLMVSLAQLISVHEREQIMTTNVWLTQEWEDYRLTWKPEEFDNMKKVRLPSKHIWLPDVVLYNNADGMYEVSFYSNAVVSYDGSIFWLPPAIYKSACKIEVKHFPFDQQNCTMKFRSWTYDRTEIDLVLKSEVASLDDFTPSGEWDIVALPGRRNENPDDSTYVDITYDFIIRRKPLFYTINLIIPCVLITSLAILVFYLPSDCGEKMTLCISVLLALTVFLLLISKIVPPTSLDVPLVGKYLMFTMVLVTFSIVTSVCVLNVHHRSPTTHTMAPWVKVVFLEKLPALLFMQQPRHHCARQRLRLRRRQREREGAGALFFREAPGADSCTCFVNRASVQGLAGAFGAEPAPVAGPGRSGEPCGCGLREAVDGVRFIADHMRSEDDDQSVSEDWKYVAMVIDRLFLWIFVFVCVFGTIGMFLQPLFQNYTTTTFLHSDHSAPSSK
Chain of Neuronal acetylcholine receptor; alpha4/beta2 (Homo sapiens, UniProt P17787+P43681) (P43681 whole entry): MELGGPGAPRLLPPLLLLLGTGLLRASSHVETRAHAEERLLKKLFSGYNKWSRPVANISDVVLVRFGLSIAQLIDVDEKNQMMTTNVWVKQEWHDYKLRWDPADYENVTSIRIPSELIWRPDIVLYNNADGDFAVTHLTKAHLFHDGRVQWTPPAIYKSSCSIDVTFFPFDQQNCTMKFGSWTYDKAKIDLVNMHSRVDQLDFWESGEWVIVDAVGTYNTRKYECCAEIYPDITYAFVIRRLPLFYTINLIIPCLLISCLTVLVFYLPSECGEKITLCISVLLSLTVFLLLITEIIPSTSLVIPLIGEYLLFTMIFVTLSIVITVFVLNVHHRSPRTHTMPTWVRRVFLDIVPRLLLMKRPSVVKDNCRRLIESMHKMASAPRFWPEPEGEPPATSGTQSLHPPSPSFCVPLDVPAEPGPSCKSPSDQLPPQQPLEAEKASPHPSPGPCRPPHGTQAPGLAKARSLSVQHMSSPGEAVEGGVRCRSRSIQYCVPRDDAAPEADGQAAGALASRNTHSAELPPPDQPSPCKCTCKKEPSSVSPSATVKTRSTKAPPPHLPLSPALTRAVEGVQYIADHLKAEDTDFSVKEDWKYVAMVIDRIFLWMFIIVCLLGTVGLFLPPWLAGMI

NC(=O)c1cncc(N2C[C@H]3C[C@@H]2CN3)c1
Ki ([1]; read-out: Ki): 0.83 nM
EC50 ([2]; read-out: EC50): 28000 nM
EC50 (Striatum; [18]): 30 nM
EC50 (Striatum; [19]): 30.2 nM

c1cncc(N2CC3CNC(C3)C2)c1 (stereo not drawn)
Ki ([1]; read-out: Ki): 0.047 nM
EC50 ([2]; read-out: EC50): 72 nM

Fc1ccc(N2C[C@@H]3C[C@H]2CN3)cn1
Ki ([1]; read-out: Ki): 0.17 nM
Ki ([1]; read-out: Log Ki (converted)): 0.141 nM
EC50 ([2]; read-out: EC50): 3700 nM
Log EC50 (Striatum): -7.72
EC50 (Striatum; read-out: EC50): 19 nM

c1ccc(N2C[C@@H]3C[C@H]2CN3)cc1
Ki ([1]; read-out: Ki): 1000 nM

N#Cc1cncc(N2C[C@H]3C[C@@H]2CN3)c1
Ki ([1]; read-out: Ki): 0.027 nM
EC50 ([2]; read-out: EC50): 980 nM
Log EC50 (Striatum): -9.1
EC50 (Striatum; read-out: EC50): 0.8 nM

Clc1cc(N2C[C@H]3C[C@@H]2CN3)cnc1Cl
Ki ([1]; read-out: Ki): 0.018 nM
EC50 ([2]; read-out: EC50): 550 nM
EC50 (Striatum; [18]): 16 nM
EC50 (Striatum; [19]): 16.2 nM

c1ccc(N2C[C@@H]3C[C@H]2CN3)nc1
Ki ([1]; read-out: Ki): 980 nM

Oc1cc(N2C[C@H]3C[C@@H]2CN3)cnc1Cl
Activity (Rattus norvegicus [3]): Active
Activity (Rattus norvegicus [4]): inactive
Ki ([1]; read-out: Ki): 0.17 nM
EC50 ([2]; read-out: EC50): 3200 nM
Log EC50 (Striatum): -8.42
EC50 (Striatum; read-out: EC50): 3.8 nM
concentration at 0.25 h [5]: 458 ng/mL
concentration at 0.25 h [6]: 29 ng/g
concentration at 0.5 h [7]: 289 ng/mL
concentration at 1 h [8]: 131 ng/mL
concentration at 0.5 h [9]: 22 ng/g
concentration at 1 h [10]: 10 ng/g

NCc1cncc(N2C[C@@H]3C[C@H]2CN3)c1
Ki ([1]; read-out: Ki): 140 nM
EC50 ([2]; read-out: EC50): 20000 nM

c1csc(N2C[C@@H]3C[C@H]2CN3)n1
Ki ([1]; read-out: Ki): 2300 nM

CN1CCC[C@H]1c1cccnc1 [NICOTINE]
EC50 (Striatum; [18]): 200 nM
EC50 (Striatum; [19]): 200 nM

c1cncc(N2CC3CNCC2C3)c1 (stereo not drawn)
Ki ([1]; read-out: Ki): 0.065 nM
EC50 ([2]; read-out: EC50): 1600 nM

Cc1cc(N2C[C@@H]3C[C@H]2CN3)sn1
Ki ([1]; read-out: Ki): 4.9 nM

Clc1ccc(C2CC3CCC2N3)cn1 (stereo not drawn) [EPIBATIDINE]
EC50 (Striatum; [18]): 0.83 nM
EC50 (Striatum; [19]): 0.832 nM

O=[N+]([O-])c1ccc(N2C[C@@H]3C[C@H]2CN3)cc1
Ki ([1]; read-out: Ki): 67 nM

Cc1ccc(N2C[C@@H]3C[C@H]2CN3)cn1
Ki ([1]; read-out: Ki): 1.6 nM
EC50 ([2]; read-out: EC50): 1700 nM
EC50 (Striatum; [18]): 350 nM
EC50 (Striatum; [19]): 347 nM

N#Cc1cncc(N2C[C@@H]3C[C@H]2CN3)c1
Ki ([1]; read-out: Ki): 1.7 nM
Ki ([1]; read-out: Log Ki (converted)): 1.62 nM
EC50 ([2]; read-out: EC50): 24000 nM
Log EC50 (Striatum): -7.64
EC50 (Striatum; read-out: EC50): 23 nM

Clc1ccc(N2CC3CC2CCN3)cn1 (stereo not drawn)
Ki ([1]; read-out: Ki): 2.8 nM
EC50 ([2]; read-out: EC50): 7440 nM

Oc1cncc(N2C[C@@H]3C[C@H]2CN3)c1
Ki ([1]; read-out: Ki): 4 nM
EC50 ([2]; read-out: EC50): > 100000 nM
Log EC50 (Striatum): -7.6
EC50 (Striatum; read-out: EC50): 28 nM

O=[N+]([O-])c1ccc(N2C[C@@H]3C[C@H]2CN3)cn1
Ki ([1]; read-out: Ki): 110 nM
EC50 ([2]; read-out: EC50): 11000 nM

Cc1nsc(N2C[C@H]3C[C@@H]2CN3)n1
Ki ([1]; read-out: Ki): 350 nM

c1cncc(N2C[C@H]3C[C@@H]2CN3)c1
Ki ([1]; read-out: Ki): 0.018 nM
EC50 ([2]; read-out: EC50): 370 nM

Cc1cc(N2C[C@H]3C[C@@H]2CN3)cnc1Cl
Ki ([1]; read-out: Ki): 0.014 nM
EC50 ([2]; read-out: EC50): 180 nM

c1cnc2cc(N3C[C@H]4C[C@@H]3CN4)sc2c1
Ki ([1]; read-out: Ki): 0.83 nM

Cc1cc(N2C[C@@H]3C[C@H]2CN3)nnc1Cl
Ki ([1]; read-out: Ki): 3.8 nM

NC(=O)c1cncc(N2C[C@@H]3C[C@H]2CN3)c1
Ki ([1]; read-out: Ki): 24 nM
EC50 ([2]; read-out: EC50): 25000 nM

c1cnc2c(N3C[C@H]4C[C@@H]3CN4)csc2c1
Ki ([1]; read-out: Ki): 280 nM

COc1ccc(N2C[C@H]3C[C@@H]2CN3)cn1
Ki ([1]; read-out: Ki): 0.25 nM
EC50 ([2]; read-out: EC50): 850 nM

Oc1cncc(N2C[C@H]3C[C@@H]2CN3)c1
Ki ([1]; read-out: Ki): 0.035 nM
EC50 ([2]; read-out: EC50): 2600 nM
Log EC50 (Striatum): -8.24
EC50 (Striatum; read-out: EC50): 5.7 nM

O=[N+]([O-])c1cccc(N2C[C@@H]3C[C@H]2CN3)c1
Ki ([1]; read-out: Ki): 600 nM

COc1cc(N2C[C@H]3C[C@@H]2CN3)cnc1Cl
Ki ([1]; read-out: Ki): 0.1 nM
EC50 ([2]; read-out: EC50): 4300 nM

Fc1ccc(N2C[C@H]3C[C@@H]2CN3)cn1
Ki ([1]; read-out: Ki): 0.028 nM
EC50 ([2]; read-out: EC50): 160 nM
EC50 ([2]; read-out: Log EC50 (converted)): 1.62 nM
Log EC50 (Striatum): -6.7
EC50 (Striatum; read-out: EC50): 1.6 nM

Clc1ccc(N2C[C@H]3C[C@@H]2CN3)cn1
Ki ([1]; read-out: Ki): 0.018 nM
EC50 ([2]; read-out: EC50): 140 nM
Log EC50 (Striatum): -8.6
EC50 (Striatum; read-out: EC50): 2.5 nM

Oc1cc(N2C[C@@H]3C[C@H]2CN3)cnc1Cl
Ki ([1]; read-out: Ki): 1.6 nM
EC50 ([2]; read-out: EC50): 35000 nM
Log EC50 (Striatum): -7.3
EC50 (Striatum; read-out: EC50): 51 nM

Clc1cc(N2CC3CC2CN3)ncn1 (stereo not drawn)
Ki ([1]; read-out: Ki): 52 nM

Clc1nnc(N2C[C@@H]3C[C@H]2CN3)c2ccccc12
Ki ([1]; read-out: Ki): 1900 nM

c1cncc(N2C[C@@H]3C[C@H]2CN3)c1
Ki ([1]; read-out: Ki): 0.15 nM
EC50 ([2]; read-out: EC50): 6400 nM
EC50 (Striatum; [18]): 138 nM
EC50 (Striatum; [19]): 138 nM

Clc1ccc(N2C[C@@H]3C[C@H]2CN3)cn1
Activity (Mus musculus [11]): Active
Activity (Mus musculus [12]): Active
Activity (Mus musculus [13]): Active
Ki ([1]; read-out: Ki): 0.1 nM
EC50 ([2]; read-out: EC50): 450 nM
Log EC50 (Striatum): -8.28
EC50 (Striatum; read-out: EC50): 5.3 nM
Activity (Rattus norvegicus [14]): Active
Activity (Rattus norvegicus [15]): Active
Activity (Rattus norvegicus [16]): Active
Activity (Mus musculus [17]): Active

FC(F)(F)c1cncc(N2C[C@H]3C[C@@H]2CN3)c1
Ki ([1]; read-out: Ki): 490 nM

c1ccc2nc(N3C[C@@H]4C[C@H]3CN4)ccc2c1
Ki ([1]; read-out: Ki): 4000 nM

c1ccc2ncc(N3C[C@@H]4C[C@H]3CN4)cc2c1
Ki ([1]; read-out: Ki): 17 nM

c1ncc(N2C[C@@H]3C[C@H]2CN3)cn1
Ki ([1]; read-out: Ki): 0.95 nM

CN1C[C@@H]2C[C@H]1CN2c1ccc(Cl)nc1
Ki ([1]; read-out: Ki): 1.3 nM

c1cncc(CN2C[C@H]3C[C@@H]2CN3)c1
Ki ([1]; read-out: Ki): 56 nM

O=C1C2CC(CN2)N1c1ccc(Cl)nc1 (stereo not drawn)
Ki ([1]; read-out: Ki): > 10000 nM
Ki ([1]; read-out: Log Ki (converted)): > 100000 nM

O=C(c1ccc(Cl)nc1)N1C[C@H]2C[C@@H]1CN2
Ki ([1]; read-out: Ki): 590 nM

Nc1ccc(N2CC3CC2CN3)cn1 (stereo not drawn)
Ki ([1]; read-out: Ki): 20 nM
EC50 ([2]; read-out: EC50): 31000 nM

CCN1C[C@@H]2C[C@H]1CN2c1ccc(Cl)nc1
Ki ([1]; read-out: Ki): 34 nM

c1cnnc(N2C[C@@H]3C[C@H]2CN3)c1
Ki ([1]; read-out: Ki): 120 nM

O=S(=O)(c1cnc(Cl)c(Br)c1)N1C[C@H]2C[C@@H]1CN2
Ki ([1]; read-out: Ki): 17 nM

COc1cncc(N2C[C@H]3C[C@@H]2CN3)c1
Ki ([1]; read-out: Ki): 0.12 nM
EC50 ([2]; read-out: EC50): 5700 nM
Log EC50 (Striatum): -7.7
EC50 (Striatum; read-out: EC50): 20 nM

Clc1ccc(N2C[C@@H]3C[C@H]2CN3)cc1
Ki ([1]; read-out: Ki): 22 nM

C[N+]1(C)CC2CC1CN2c1ccc(Cl)nc1 (stereo not drawn)
Ki ([1]; read-out: Ki): 0.2 nM
EC50 ([2]; read-out: EC50): 1500 nM

Fc1cccc(N2C[C@@H]3C[C@H]2CN3)c1
Ki ([1]; read-out: Ki): 250 nM

c1cncc(N2CC3CCC2CN3)c1 (stereo not drawn)
Ki ([1]; read-out: Ki): 0.02 nM
EC50 ([2]; read-out: EC50): 280 nM

COc1cncc(N2C[C@@H]3C[C@H]2CN3)c1
Ki ([1]; read-out: Ki): 0.53 nM
EC50 ([2]; read-out: EC50): 30000 nM
Log EC50 (Striatum): -7.09
EC50 (Striatum; read-out: EC50): 81 nM
